Test results taken from ChEMBL document CHEMBL1201862, “PubChem BioAssay data set” (2004).
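Briefly, cells in 96-well plates were exposed to five compound concentrations for 48 h, and endpoints were estimated by linear interpolation. GI50 is the concentration that inhibits growth by half.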 Calls of active or inactive are those of the source. Cut-off read from the data, not from the text of the source: active = GI50 up to about 1.1 µM and inactive = higher.

How the values were obtained:
Experiment in all cases: NCI-60 cell line screen, 48 h
T47D = test system: T47D
DU-145 = test system: DU-145
HT-29 = test system: HT-29
RXF 631 = test system: RXF 631
UACC-62 = test system: UACC-62
SF-295 = test system: SF-295
786-0 = test system: 786-0
M14 = test system: M14
SF-268 = test system: SF-268
XF498 = test system: XF498
K562 = test system: K562
HOP-92 = test system: HOP-92
IGROV-1 = test system: IGROV-1
NCI-H226 = test system: NCI-H226
HL-60 = test system: HL-60
SF-539 = test system: SF-539
HOP-62 = test system: HOP-62
Hs-578T = test system: Hs-578T
SK-MEL-5 = test system: SK-MEL-5
DMS-114 = test system: DMS-114
U-251 = test system: U-251
SN12C = test system: SN12C
BT-549 = test system: BT-549
LOX IMVI = test system: LOX IMVI
UACC-257 = test system: UACC-257
PC-3 = test system: PC-3
RPMI-8226 = test system: RPMI-8226
NCI-H460 = test system: NCI-H460
OVCAR-5 = test system: OVCAR-5
SK-MEL-28 = test system: SK-MEL-28
NCI/ADR-RES = test system: NCI/ADR-RES
OVCAR-3 = test system: OVCAR-3
RXF 393 = test system: RXF 393
HCT-15 = test system: HCT-15
OVCAR-4 = test system: OVCAR-4
CCRF-CEM = test system: CCRF-CEM
HCT-116 = test system: HCT-116
A549 = test system: A549
SK-MEL-2 = test system: SK-MEL-2
KM12 = test system: KM12
SW-620 = test system: SW-620
SNB-75 = test system: SNB-75
DLD-1 = test system: DLD-1
OVCAR-8 = test system: OVCAR-8
A498 = test system: A498
NCI-H23 = test system: NCI-H23
SR = test system: SR
SNB-19 = test system: SNB-19
MOLT-4 = test system: MOLT-4
SNB-78 = test system: SNB-78
MDA-MB-231 = test system: MDA-MB-231
ACHN = test system: ACHN
DMS-273 = test system: DMS-273
NCI-H522 = test system: NCI-H522
EKVX = test system: EKVX
UO-31 = test system: UO-31
KM-20L2 = test system: KM-20L2
SK-OV-3 = test system: SK-OV-3
MDA-N = test system: MDA-N
MDA-MB-435 = test system: MDA-MB-435
TK-10 = test system: TK-10
HCC 2998 = test system: HCC 2998
Malme-3M = test system: Malme-3M
LXFL 529 = test system: LXFL 529
CAKI-1 = test system: CAKI-1
COLO 205 = test system: COLO 205
HOP-18 = test system: HOP-18
M19-MEL = test system: M19-MEL

Compound: Nc1ccc(S(=O)(=O)Nc2cnc3ccccc3n2)cc1 [SULFAQUINOXALINE]
- GI50 (T47D): > 100 µM (inactive)
- GI50 (DU-145): > 100 µM (inactive)
- GI50 (HT-29): > 100 µM (inactive)
- GI50 (RXF 631): > 100 µM (inactive)
- GI50 (UACC-62): > 100 µM (inactive)
- GI50 (SF-295): > 100 µM (inactive)
- GI50 (786-0): > 100 µM (inactive)
- GI50 (M14): > 100 µM (inactive)
- GI50 (SF-268): > 87.9 µM (inactive)
- GI50 (XF498): > 100 µM (inactive)
- GI50 (K562): > 100 µM (inactive)
- GI50 (HOP-92): > 100 µM (inactive)
- GI50 (IGROV-1): > 96.6 µM (inactive)
- GI50 (NCI-H226): > 100 µM (inactive)
- GI50 (HL-60): > 100 µM (inactive)
- GI50 (SF-539): > 100 µM (inactive)
- GI50 (HOP-62): > 100 µM (inactive)
- GI50 (Hs-578T): < 0.01 µM (active)
- GI50 (SK-MEL-5): > 100 µM (inactive)
- GI50 (DMS-114): > 100 µM (inactive)
- GI50 (U-251): > 100 µM (inactive)
- GI50 (SN12C): > 100 µM (inactive)
- GI50 (BT-549): > 100 µM (inactive)
- GI50 (LOX IMVI): > 100 µM (inactive)
- GI50 (UACC-257): > 100 µM (inactive)
- GI50 (PC-3): > 100 µM (inactive)
- GI50 (RPMI-8226): > 100 µM (inactive)
- GI50 (NCI-H460): > 100 µM (inactive)
- GI50 (OVCAR-5): > 100 µM (inactive)
- GI50 (SK-MEL-28): > 100 µM (inactive)
- GI50 (NCI/ADR-RES): > 100 µM (inactive)
- GI50 (OVCAR-3): > 100 µM (inactive)
- GI50 (RXF 393): > 100 µM (inactive)
- GI50 (HCT-15): > 100 µM
- GI50 (OVCAR-4): > 100 µM (inactive)
- GI50 (CCRF-CEM): > 100 µM (inactive)
- GI50 (HCT-116): > 100 µM (inactive)
- GI50 (A549): > 100 µM (inactive)
- GI50 (SK-MEL-2): > 52.1 µM (inactive)
- GI50 (KM12): > 100 µM (inactive)
- GI50 (SW-620): > 100 µM (inactive)
- GI50 (SNB-75): 26.7 µM (inactive)
- GI50 (DLD-1): > 100 µM (inactive)
- GI50 (OVCAR-8): > 100 µM (inactive)
- GI50 (A498): > 100 µM (inactive)
- GI50 (NCI-H23): > 100 µM (inactive)
- GI50 (SR): > 100 µM (inactive)
- GI50 (SNB-19): > 100 µM (inactive)
- GI50 (MOLT-4): > 100 µM (inactive)
- GI50 (SNB-78): > 100 µM (inactive)
- GI50 (MDA-MB-231): > 100 µM (inactive)
- GI50 (ACHN): > 100 µM (inactive)
- GI50 (DMS-273): > 100 µM (inactive)
- GI50 (NCI-H522): > 100 µM (inactive)
- GI50 (EKVX): > 100 µM (inactive)
- GI50 (UO-31): > 100 µM (inactive)
- GI50 (KM-20L2): > 100 µM (inactive)
- GI50 (SK-OV-3): > 100 µM (inactive)
- GI50 (MDA-N): > 100 µM (inactive)
- GI50 (MDA-MB-435): > 100 µM (inactive)
- GI50 (TK-10): > 100 µM (inactive)
- GI50 (HCC 2998): > 100 µM (inactive)
- GI50 (Malme-3M): > 96.6 µM (inactive)
- GI50 (LXFL 529): > 100 µM (inactive)
- GI50 (CAKI-1): > 100 µM (inactive)
- GI50 (COLO 205): > 100 µM (inactive)
- GI50 (HOP-18): > 100 µM (inactive)
- GI50 (M19-MEL): > 100 µM (inactive)
